Measured values: patent US11066649B2, “Method for inducing human cholangiocyte differentiation” (INSERM (INSTITUT NATIONAL DE LA SANTÉ ET DE LA RECHERCHE …, priority 2014, dated 2021)

Key:
[1] = tested on: hESC-Chol; experiment: Cellular Ca2+ imaging: intracellular Ca2+ increase after hormonal stimulation; type: cell-based, human; conditions: hESC-Chol at day 23, Fura2-AM loaded
Description: At day 17, differentiating hESC-Chols were plated on glass coverslips coated with type I collagen and differentiated further into cholangiocyte-like cells as described above. At day 23 hESC-Chols were loaded with 3 μM Fura2-AM (Invitrogen, F1201) in BDM medium (37° C. and 5% CO2), for 45 minutes. Cells were then washed twice, and transferred into a perfusion chamber placed on the stage of a Zeiss inverted microscope (Axiovert 35). Intracellular calcium increases were measured after stimulation with somatostatin (Eumedica), ATP (Sigma), or Acetylcholine (Sigma). Calcium imaging was performed as described previously.^41 Fluorescence images were collected by a charge-coupled device camera (Princeton), digitized and integrated in real time by an image processor (Metafluor, Princeton).
To assess the functionality of our hESC-Chol, they analyzed their response to Adenosine triphosphate (ATP), acetylcholine and Somatostatin, known to induce Ca^2+ increase in biliary cells via P2Y1 receptors,^5 M3 muscarinic receptor (AChR M3),^25 Somatostatin receptor type 2 (SSTR2)^26 respectively, as well as type III Inositol 1,4,5-triphosphate (InsP3) receptor (InsP3R), an intracellular Ca^2+ channel, which stimulates release of Ca^2+ from intracellular stores into the cytosol.^27

[2] = tested on: hESC-Chol; experiment: Expression of cholangiocyte markers in hESC-Chol after addition of NaBut; type: cell-based, human; conditions: addition of NaBut on hESC-Chol (1 μM, days 21 to 23)
Description: (§1) At days 10-12 of differentiation, hESC/hiPSC-hepatoblasts were harvested with cell dissociation buffer (0.1 mg/ml EDTA, 0.5 mg/ml BSA in PBS) and seeded onto 12-well collagen I-coated plates (BD Biosciences) with plating medium (William's E/Ham F12 1:1, 10% FBS (PAA Laboratories), 1 mg/ml fraction V fatty acid-free BSA (Sigma), 1 mM L-glutamine) for 4 hours. Cells were then incubated overnight with biliary differentiation medium (BDM) (William's E/Ham F12 1:1, 10^−5 M linoleic acid-Albumin (Sigma L9530), 5.10^−8 M 3,3′,5-Triiodo-L-thyronine (Sigma T2752), 0.2 IU Insulin, 6.10^−4 M Vitamin C (Boyer), […] (Sigma T5391), 1 mM sodium pyruvate (Gibco)). […]
Total RNA was purified with an RNAeasy kit (Qiagen). cDNAs were obtained by using QuantiTect kit (Qiagen 204341) or the High Capacity cDNA Reverse Transcription Kit (Applied Biosystems, Carlsbad, Calif.) according to the manufacturer's instructions. The level of gene expression was measured and analyzed by real-time PCR over 40 cycles using Taqman universal master mix II and Taqman gene expression assays (Applied Biosystems) using an ABI-7000 real-time PCR system and ABI 7000 software. The expression level of CFTR TGR5 (GPBAR-1), SCTR, GGT1, SOX9, AQP1 and JAG was determined in relation to RPL13A, which served as a housekeeping gene. […]

[3] = tested on: HepaRG-HB; experiment: Effect of GH on HepaRG-hepatoblasts; type: cell-based, human; conditions: addition of GH; data not shown
Description: Independent culture experiments were performed 4 times.

[4] = tested on: hESC-derived differentiating cells; experiment: Ki67 staining of differentiating cells after addition of IL-6; type: cell-based, human; conditions: after addition of IL-6 (10 ng/ml)
Description: as §1
Cells were fixed with 4% Paraformaldehyde for 15 minutes at room temperature and permeabilized with 0.5% Triton X-100 for 15 minutes, 3% BSA-PBS for 30 minutes at room temperature or with 0.2% saponin and 5% donkey serum for 45 minutes at room temperature. […] All the photographs were taken with a Leica HMR microscope (Leica Microsystems), inverted DMIRBE microscope (Leica) using a 20×/0.4 N Plan objective (leica) and a CoolSnapES N&B camera (Photometrics) driven by MetaVue software (Molecular devices), SP5 LEICA DMI 6000 CS Microscope (Leica, Germany) and treated with LAS AF 2.6.0 software, or ACT-1 Nikon software or Cellomics ArrayScan VTI HCS Reader.

[5] = tested on: hepatic progenitors; experiment: Effect of periportal mesenchymal factors on commitment of hepatic progenitors toward cholangiocytes; type: cell-based, human; conditions: addition to hepatic progenitors; data not shown
[6] = tested on: HepaRG-Chol; conditions: VEGF-165 20 ng/ml for 2 days
Description: HepaRG-HB cultured in the reduced medium were treated for 2 days with IL-6 (10 ng/ml), then for 2 days with sodium taurocholate hydrate (10 nM) and then for 2 days with sodium taurocholate hydrate (10 nM) and sodium butyrate (1.8 μM) to prevent spontaneous differentiation along the hepatocytic lineage. Independent culture experiments were performed 4 times. For proliferation assay, VEGF-165 (20 ng/ml) (Promokine, C-64420) was added on HepaRG-Chol culture for 2 days. Immunostaining pictures were analyzed and quantification was assessed with Cell Health Profiling BioApplication from Cellomics software.

Nc1ncnc2c1ncn2[C@@H]1O[C@H](COP(=O)(O)OP(=O)(O)OP(=O)(O)O)[C@@H](O)[C@H]1O [ATP, Adenosine triphosphate]
percentage of responsive cells (Ca2+ increase) [1]: 70%±5

CCCC(=O)[O-].[Na+] [NaBut, Sodium Butyrate]
expression of cholangiocyte markers [2]: did not significantly change

CC(=O)OCC[N+](C)(C)C [acetylcholine]
percentage of responsive cells (Ca2+ increase) [1]: 40%±4

GH: peptide hormone that stimulates growth and metabolism; Uniprot P01241
proliferation and differentiation of HepaRG-hepatoblasts [3]: did not improve

IL-6: polypeptide also known as B cell-stimulating factor 2; Uniprot P05231
Ki67-positive cycling cells [4]: up to 68%

TGFβ1: Transforming growth factor beta 1
cell commitment toward cholangiocytes [5]: did not induce significant cell commitment

VEGF
increase in the number of cells in G2/M phases [6]: two-fold increase
cell commitment toward cholangiocytes [5]: did not induce significant cell commitment

B1: BMP4: Bone morphogenetic protein 4; Uniprot P12644 (protein, UniProt P12644 293-408, looked up)
Bone morphogenetic protein 4: SPKHHSQRARKKNKNCRRHSLYVDFSDVGWNDWIVAPPGYQAFYCHGDCPFPLADHLNSTNHAIVQTLVNSVNSSIPKACCVPTELSAISMLYLDEYDKVVLKNYQEMVVEGCGCR
cell commitment toward cholangiocytes [5]: did not induce significant cell commitment
